Measured values published in patent publication US20220288004A1, “TREATMENT AND PREVENTION OF AGING RELATED-DISEASE AND/OR AGING BY THE INHIBITION OF SPHINGOLIPIDS” (ECOLE POLYTECHNIQUE FEDERALE DE LAUSANNE (EPFL), priority 2019, published 2022).
Entries after “also recorded” stand apart in the source; their conditions may differ.

What was measured:
[1] = test system: APPSwe-expressing C2C12 myoblasts; experiment: Proteostat staining of APPSwe-expressing C2C12 myoblasts; type: cell-based, mouse; details: 30 μM MYR for 24 h
Protocol: FIG. 16. Quantitative Proteostat signal normalized over the number of cells in human primary myoblasts from IBM donors (above) and APPSwe-expressing C2C12 myoblasts (below) decreases after treatment with 30 μM MYR for 24 h. Values are expressed as mean±s.e.m. ***P:0.001; ****P:0.0001. Differences between two groups were assessed using Student's two-tailed t-tests (error bars: 95% confidence intervals).

aged C57Bl/6JRj mice [2] = experiment: Body composition, muscle mass and TA muscle histology in aged mice; type: in vivo, mouse
Protocol: To examine whether a causal relationship could underlie the correlation between SphPC1 and muscle mass and function, it was tested whether inhibition of sphingolipid de novo biosynthesis pathway could protect against age-related muscle dysfunction. Aged (18-month-old) C57Bl/6JRj mice were treated for 5 months on chow diet with myriocin, a specific inhibitor of SPT, the first and rate-limiting enzyme of the sphingolipid de novo synthesis pathway, and whose expression in skeletal muscle was negatively correlated with muscular fitness in BXDs.
Animals. Young (2-month-old) and aged (18-month-old) C57Bl/6JRj mice were purchased from Janvier Labs. EchoMRI measuring the fat and lean body mass, were measured before and after the treatment. The dose of myriocin was 0.4 mg/kg/3 times a week. Myriocin (Enzo Life Sciences, Farmingdale, N.Y.) was first dissolved in DMSO which was then mixed with PBS so that each mouse received 1.5 μL DMSO per injection. Animals were fed on a standard chow diet. All animals were housed in micro-isolator cages in a room illuminated from 7:00 AM to 7:00 PM with ad libitum access to diet and water. All the animal experiments are authorized by animal license 2890.1 and 3341 in Canton of Vaud, Switzerland.
Histology. TA muscles were harvested from anesthetized mice, and immediately embedded in Thermo Scientific™ Shandon™ Cryomatrix™ and frozen in isopentane, cooled in liquid nitrogen, for 1 min before being transferred to dry ice and stored at −80° C. 8 μm cryosections were incubated in 4% PFA for 15 min, washed three times for 10 min with PBS, incubated for antigen retrieval in pH 6.0 citrate buffer for 10 min at 95° C. […] Microscopy images of fluorescence from muscle fibers were analyzed using the ImageJ software. Centralized nuclei percent, minimal Feret diameter and cross-sectional area in TA muscles were determined using the ImageJ software quantification of laminin, dystrophin, and DAPI-stained muscle images from VS120-S6-W slides scanner (Olympus). […] The mean cross-sectional area of muscle fibers was calculated as the average cross-sectional area of 2,000 fibers per from sample. 7-8 mouse samples per condition were used for histological quantification of donor mice. The eMyHC quantification is expressed as proportion of eMyHC positive signal over total TA cross sectional area. Following MuSC injection in CTX injected recipient mice, inflammation representing the regenerative stage of muscle was quantified by ImageJ software as proportion of inflammatory area over total area of the TA muscle cross section. The PAX7-positive cells were quantified as the average number of cells per field of more than 30 randomly chosen fields from a mouse TA. For each quantification, 3 or more mice were used.

aged C57Bl/6JRj mice [3] = experiment: Oral glucose tolerance test in aged mice; type: in vivo, mouse; details: aged chow-fed myriocin treated mice
Text: Frailty is associated with multimorbidity, including diabetes.

aged C57Bl/6JRj mice [4] = experiment: Ad libitum locomotion during 10 min in aged mice; type: in vivo, mouse; details: myriocin 0.4 mg/kg i.p. 3 times per week, 5 months
Protocol: FIG. 9. Sphingolipid depletion protects against frailty phenotypes. (a) Distance moved in 10 mins. (b) Average velocity during 10 minutes of observation. (c) Glucose tolerance test. (d) Time exploring familiar and novel objects. (e) Recognition index. Aged (18-month-old) C57BL/6JRj mice were treated with intraperitoneal injections of myriocin (MYR) for 5 months @ 0.4 mg/kg/3 times per week.
Human frailty syndrome is characterized by weakness, decreased walking speed, exhaustion, weight loss, and low physical activity. […] Frailty predicts falls in older people. […] In object recognition test, myriocin treated mice spent more exploring both the familiar object and novel object as compared to their DMSO treated counterparts (FIG. 9d). Although this could be partly attributable to the higher physical activity of myriocin treated mice, the treated mice were more interested in the novel than familiar object as compared to untreated mice.

## CCCCCCC(=O)CCCCCCC=CCC(O)C(O)C(N)(CO)C(=O)O (centres unmarked) [myriocin, 2-Amino-3,4-dihydroxy-2-(hydroxymethyl)-14-oxoicos-6-enoic acid]
[1]
  Proteostat signal normalized over the number of cells: decreases
Aged C57Bl/6JRj mice [2]; myriocin 0.4 mg/kg i.p. 3 times per week, 5 months, EchoMRI before and after treatment
  lean body mass: delayed age-dependent decline; also recorded: higher
Aged C57Bl/6JRj mice [2]; myriocin 5 months vs DMSO
  cross-sectional area of muscle fibers (TA): larger
  number of centralized nuclei in TA muscle: reduced number
Aged C57Bl/6JRj mice [2]; myriocin 5 months vs DMSO treated controls
  gastrocnemius and TA mass: greater; also recorded: higher
Aged C57Bl/6JRj mice [3]
  glucose tolerance: improved
Aged C57Bl/6JRj mice [4]
  ad libitum walking speed (average velocity during 10 minutes): increased
  distance travelled ad libitum during 10 min: longer
